Test results published in patent US8586505B2 (SDS Biotech K. K., priority 2009, dated 2013).

What was measured:
[1] = test system: Phytophthora infestans; assay: whole plant or invertebrate; format: in vivo; conditions: in Solanum lycopersicum, 96 h, read-out: Determination of control effect (preventive value)
[2] = test system: Pseudoperonospora cubensis; assay: Test of examining control effect on Pseudoperonospora cubensis (potted cucumber plants); format: in vivo; conditions: 96 h, 10% wettable powder adjusted to 125 ppm, 15 ml/pot sprayed on potted cucumber plants one day before spray inoculation, assessed after 1 day wet chamber and 3 days greenhouse, read-out: Determination of control effect (preventive value) on Pseudoperonospora cubensis
Procedure, shortened: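 Cucumber plants (Sagamihanjiro, 2.5-leaf stage) sprayed with 125 ppm compound solution from 10% wettable powder, 15 ml/pot. One day later, spray-inoculated with P. cubensis conidia (1.0×10^4 cells/ml), kept 1 day at 21° C wet, then 3 days in greenhouse. Preventive value derived from lesion area relative to untreated plants.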

[3] = test system: Sphaerotheca fuliginea; assay: Test of examining control effect on Sphaerotheca fuliginea (potted cucumber plants); format: in vivo; conditions: Podosphaera fuliginea, 336 h; 10% wettable powder adjusted to 125 ppm, 15 ml/pot sprayed on potted cucumber plants one day before spray inoculation; assessed after 14 days in greenhouse; read-out: Determination of control effect (preventive value) on Sphaerotheca fuliginea
Procedure, shortened: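 Cucumber plants (Sagamihanjiro, 2nd leaf stage) sprayed with 125 ppm compound (from 10% wettable powder), inoculated one day later with S. fuliginea conidia (1.0×10^5 cells/ml); lesion area scored after 14 days in greenhouse. Preventive value vs untreated; ≥60% high, <60% low control.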

[4] = test system: Tetranychus urticae eggs; assay: Test of examining effect on Tetranychus urticae eggs (ovicidal rate); format: in vivo; conditions: 144 h, 0.4 ml sprayed, unhatched eggs counted six days later, read-out: Determination (ovicidal rate)
Description: Thereafter, the released female adults were removed. […] Six days later, the number of unhatched eggs was counted, and an ovicidal rate was calculated.

Compound	pest or weed control at 125 ppm [1]	pest or weed control at 125 µg/mL [2]	pest or weed control at 125 µg/mL [3]	pest or weed control at 250 ppm [4]	melting point
C(#Cc1ccccc1)CCNc1ncnc2sccc12 [compound 10, 4-(4-Phenyl-3-butynylamino)thieno[2,3-d]pyrimidine]	60 to 100%	60 to 100%	60 to 100%	60 to 80%	–
Clc1ccc(C#CCCNc2ncnc3sccc23)cc1 [compound 16]	0 to 60%	60 to 100%	60 to 100%	60 to 80%	–
Cc1ccc(C#CCCNc2ncnc3sccc23)cc1 [compound 19]	0 to 60%	60 to 100%	60 to 100%	60 to 80%	–
CC(C)(C)c1ccc(C#CCCNc2ncnc3sccc23)cc1 [compound 20]	0 to 60%	60 to 100%	60 to 100%	60 to 80%	–
COc1cccc(C#CCCNc2ncnc3sccc23)c1 [compound 22]	0 to 60%	60 to 100%	60 to 100%	60 to 80%	–
O=[N+]([O-])c1ccccc1C#CCCNc1ncnc2sccc12 [compound 38]	60 to 100%	60 to 100%	–	60 to 80%	–
C=C(C#CCCNc1ncnc2ccccc12)c1ccccc1 [compound 95]	0 to 60%	60 to 100%	0 to 60%	60 to 80%	–
C(#Cc1ccc(C2CCCCC2)cc1)CCNc1ncnc2ccccc12 [compound 109]	0 to 60%	60 to 100%	60 to 100%	80 to 95%	–
FC(F)=Cc1ccc(C#CCCNc2ncnc3ccccc23)cc1 [compound 113]	0 to 60%	60 to 100%	60 to 100%	≥ 95%	–
CCOC(=O)c1cnc(C#CCCNc2ncnc3ccccc23)s1 [compound 213]	0 to 60%	60 to 100%	60 to 100%	–	113 to 114 °C
CCOC(=O)c1sc(C#CCCNc2ncnc3ccccc23)nc1C [compound 214]	0 to 60%	60 to 100%	60 to 100%	–	139 to 140 °C
COc1cccc(Oc2nc(C#CCCNc3ncnc4ccccc34)cs2)c1 [compound 216]	60 to 100%	60 to 100%	60 to 100%	–	77 to 79 °C
COc1ccc(Oc2nc(C#CCCNc3ncnc4ccccc34)cs2)cc1 [compound 217]	0 to 60%	60 to 100%	60 to 100%	–	150 to 152 °C
FC(F)(F)c1ccccc1Oc1nc(C#CCCNc2ncnc3ccccc23)cs1 [compound 218]	0 to 60%	60 to 100%	0 to 60%	–	159 to 161 °C
FC(F)(F)c1cccc(Oc2nc(C#CCCNc3ncnc4ccccc34)cs2)c1 [compound 219]	0 to 60%	60 to 100%	60 to 100%	–	106 to 108 °C
FC(F)(F)c1ccc(Oc2nc(C#CCCNc3ncnc4ccccc34)cs2)cc1 [compound 220]	0 to 60%	0 to 60%	60 to 100%	–	137 to 139 °C
N#Cc1cccc(Oc2nc(C#CCCNc3ncnc4ccccc34)cs2)c1 [compound 222]	0 to 60%	60 to 100%	60 to 100%	–	137 to 139 °C

Compound	pest or weed control at 125 ppm [1]	pest or weed control at 125 µg/mL [2]	pest or weed control at 125 µg/mL [3]	pest or weed control at 250 ppm [4]	melting point
N#Cc1ccc(Oc2nc(C#CCCNc3ncnc4ccccc34)cs2)cc1 [compound 223]	60 to 100%	60 to 100%	60 to 100%	–	55 to 57 °C
Fc1cccc(Oc2nc(C#CCCNc3ncnc4ccccc34)cs2)c1 [compound 225]	60 to 100%	60 to 100%	60 to 100%	–	134 to 136 °C
CC(CC#Cc1ccccc1Cl)Nc1ncnc2sccc12 (stereo not drawn) [compound 231]	60 to 100%	60 to 100%	60 to 100%	60 to 80%	–
CC(CC#Cc1ccc(Cl)cc1)Nc1ncnc2sccc12 (stereo not drawn) [compound 232]	60 to 100%	60 to 100%	60 to 100%	80 to 95%	–
CCc1ccc(C#CCC(C)Nc2ncnc3sccc23)cc1 (stereo not drawn) [compound 240]	60 to 100%	60 to 100%	–	60 to 80%	–
CC(CC#Cc1c(Cl)cc(C(F)(F)F)cc1Cl)Nc1ncnc2sccc12 (stereo not drawn) [compound 262]	–	60 to 100%	60 to 100%	≥ 95%	–
CC(CC#Cc1cscn1)Nc1ncnc2ccccc12 (stereo not drawn) [compound 291]	0 to 60%	60 to 100%	60 to 100%	–	142 to 145 °C
C(#Cc1ccccc1)CC(Nc1ncnc2ccccc12)c1ccccc1 (stereo not drawn) [compound 301, 4-[(1,4-diphenyl-3-butynyl)amino]quinazoline]	0 to 60%	0 to 60%	0 to 60%	–	141 to 143 °C
FC(F)(F)c1ccccc1C#CCC(Nc1ncnc2ccccc12)c1ccccc1 (stereo not drawn) [compound 302]	0 to 60%	0 to 60%	0 to 60%	–	150 to 152 °C
FC(F)(F)c1ccccc1C#CCCNc1ncnc2cc(Cl)ccc12 [compound 308]	0 to 60%	60 to 100%	60 to 100%	–	153 to 154 °C
COCc1ccccc1C#CCCNc1ncnc2ccc(I)cc12 [compound 322]	0 to 60%	60 to 100%	60 to 100%	–	121 to 123 °C
COCc1ccccc1C#CCCNc1ncnc2c(Cl)cc(Cl)cc12 [compound 338]	0 to 60%	60 to 100%	0 to 60%	–	161 to 162 °C
Clc1ncnc(NCCC#Cc2ccccc2)c1Cl [compound 357]	60 to 100%	60 to 100%	0 to 60%	–	122 to 123 °C
Clc1cc(NCCC#Cc2ccccc2)ncn1 [compound 358]	0 to 60%	0 to 60%	60 to 100%	–	118 to 120 °C
Clc1ncnc(NCCC#Cc2ccccc2)c1Cc1ccccc1 [compound 372]	0 to 60%	0 to 60%	0 to 60%	–	157 to 158 °C
C(#Cc1ccccc1)CCNc1ncnc2[nH]cnc12 [compound 378]	0 to 60%	0 to 60%	0 to 60%	–	207 to 208 °C
